This is an account of results in US20060154898A1, “Diphosphonate solutions” (priority 2000, published 2006).

A short description of the series: pH of a diphosphonate solution in distilled water. It counts as physicochemical. The settings on record: solution of one percent in distilled water. An excerpt: Solutions of diphosphonates will generally have a pH above that desired. For example, a solution of one percent pamidronate disodium salt in distilled water has a pH of approximately 8.3. The pH is adjusted with a suitable acid or alkali. Suitable acids include any acid such as hydrochloric or phosphoric acid. Phosphoric acid is preferred. Suitable […] include sodium hydroxide.

Where a name gives a salt, the structure may show the parent alone.

Turning to `NCCC(O)(P(=O)(O)O)P(=O)(O)O` [pamidronate disodium salt], the pH of solution entry is “approximately 8.3”.
